Experimental data taken from the NIST ThermoML archive (doi:10.1021/je300938w).
Numbers after ± are expanded uncertainties.

Assays:
[1] = wn = mass fraction of the nth substance listed; conditions: 101 kPa, Liquid; for viscosity: Concentric cylinders viscometry; for mass density: Vibrating tube method
[2] = refractive index (Na D-line) (dimensionless); wn = mass fraction of the nth substance listed; conditions: 101 kPa, Liquid, Standard Abbe refractometry

OCCNCCO [diethanolamine] + O
Conditions | mass density, [1] [kg/m3] | refractive index, [2] | viscosity, [1] [mPa·s]
298.15 K, w1 = 0.05 | 1003.46 ± 0.042 | 1.3394 ± 0.00031 | 1.059 ± 0.0073
298.15 K, w1 = 0.1 | 1009.09 ± 0.045 | 1.34654 ± 0.00031 | 1.27 ± 0.0079
298.15 K, w1 = 0.15 | 1014.94 ± 0.049 | 1.35439 ± 0.00031 | 1.503 ± 0.0088
298.15 K, w1 = 0.2 | 1020.92 ± 0.052 | 1.36184 ± 0.00031 | 1.893 ± 0.01
298.15 K, w1 = 0.25 | 1027.11 ± 0.056 | 1.37017 ± 0.00031 | 2.376 ± 0.012
303.15 K, w1 = 0.05 | 1001.98 ± 0.042 | 1.33875 ± 0.00031 | 0.9498 ± 0.007
303.15 K, w1 = 0.1 | 1007.53 ± 0.045 | 1.34585 ± 0.00031 | 1.129 ± 0.0075
303.15 K, w1 = 0.15 | 1013.27 ± 0.048 | 1.35368 ± 0.00031 | 1.319 ± 0.0081
303.15 K, w1 = 0.2 | 1019.14 ± 0.051 | 1.36108 ± 0.00031 | 1.649 ± 0.0093
303.15 K, w1 = 0.25 | 1025.19 ± 0.055 | 1.36935 ± 0.00031 | 2.05 ± 0.011
308.15 K, w1 = 0.05 | 1000.3 ± 0.041 | 1.33801 ± 0.00031 | 0.8569 ± 0.0067
308.15 K, w1 = 0.1 | 1005.77 ± 0.044 | 1.34511 ± 0.00031 | 1.013 ± 0.0072
308.15 K, w1 = 0.15 | 1011.42 ± 0.047 | 1.35288 ± 0.00031 | 1.174 ± 0.0076
308.15 K, w1 = 0.2 | 1017.18 ± 0.051 | 1.36028 ± 0.00031 | 1.455 ± 0.0086
308.15 K, w1 = 0.25 | 1023.11 ± 0.054 | 1.36847 ± 0.00031 | 1.795 ± 0.0098
313.15 K, w1 = 0.05 | 998.43 ± 0.041 | 1.3372 ± 0.00031 | 0.7792 ± 0.0065
313.15 K, w1 = 0.1 | 1003.83 ± 0.043 | 1.34427 ± 0.00031 | 0.9142 ± 0.0069
313.15 K, w1 = 0.15 | 1009.39 ± 0.046 | 1.35208 ± 0.00031 | 1.051 ± 0.0073
313.15 K, w1 = 0.2 | 1015.05 ± 0.05 | 1.35939 ± 0.00031 | 1.295 ± 0.0081
313.15 K, w1 = 0.25 | 1020.89 ± 0.053 | 1.36756 ± 0.00031 | 1.585 ± 0.009
318.15 K, w1 = 0.05 | 996.373 ± 0.042 | 1.33633 ± 0.00031 | 0.7137 ± 0.0064
318.15 K, w1 = 0.1 | 1001.71 ± 0.042 | 1.3434 ± 0.00031 | 0.8307 ± 0.0067
318.15 K, w1 = 0.15 | 1007.2 ± 0.046 | 1.35122 ± 0.00031 | 0.948 ± 0.007
318.15 K, w1 = 0.2 | 1012.78 ± 0.049 | 1.35862 ± 0.00031 | 1.161 ± 0.0076
318.15 K, w1 = 0.25 | 1018.51 ± 0.053 | 1.36659 ± 0.00031 | 1.411 ± 0.0085
323.15 K, w1 = 0.05 | 994.141 ± 0.043 | 1.33539 ± 0.00031 | 0.653 ± 0.0062
323.15 K, w1 = 0.1 | 999.439 ± 0.042 | 1.34245 ± 0.00031 | 0.7593 ± 0.0065
323.15 K, w1 = 0.15 | 1004.85 ± 0.045 | 1.35028 ± 0.00031 | 0.8599 ± 0.0067
323.15 K, w1 = 0.2 | 1010.35 ± 0.048 | 1.35777 ± 0.00031 | 1.048 ± 0.0073
323.15 K, w1 = 0.25 | 1016 ± 0.052 | 1.36557 ± 0.00031 | 1.266 ± 0.008
328.15 K, w1 = 0.05 | 991.746 ± 0.044 | 1.33442 ± 0.00031 | 0.6017 ± 0.0061
328.15 K, w1 = 0.1 | 996.992 ± 0.043 | 1.34148 ± 0.00031 | 0.6969 ± 0.0063
328.15 K, w1 = 0.15 | 1002.36 ± 0.044 | 1.34935 ± 0.00031 | 0.7836 ± 0.0065
328.15 K, w1 = 0.2 | 1007.78 ± 0.047 | 1.3568 ± 0.00031 | 0.9519 ± 0.007
328.15 K, w1 = 0.25 | 1013.36 ± 0.051 | 1.36453 ± 0.00031 | 1.141 ± 0.0075
333.15 K, w1 = 0.05 | 989.2 ± 0.045 | 1.3334 ± 0.00031 | 0.5596 ± 0.0059
333.15 K, w1 = 0.1 | 994.401 ± 0.044 | 1.34044 ± 0.00031 | 0.643 ± 0.0062
333.15 K, w1 = 0.15 | 999.713 ± 0.043 | 1.3485 ± 0.00031 | 0.7178 ± 0.0064
333.15 K, w1 = 0.2 | 1005.07 ± 0.046 | 1.35582 ± 0.00031 | 0.8673 ± 0.0068
333.15 K, w1 = 0.25 | 1010.55 ± 0.05 | 1.36354 ± 0.00031 | 1.037 ± 0.0073
338.15 K, w1 = 0.05 | 986.501 ± 0.046 | 1.33234 ± 0.00031 | 0.5269 ± 0.0059
338.15 K, w1 = 0.1 | 991.668 ± 0.045 | 1.33938 ± 0.00031 | 0.5932 ± 0.006
338.15 K, w1 = 0.15 | 996.929 ± 0.044 | 1.34755 ± 0.00031 | 0.6619 ± 0.0062
338.15 K, w1 = 0.2 | 1002.23 ± 0.045 | 1.3547 ± 0.00031 | 0.799 ± 0.0066
338.15 K, w1 = 0.25 | 1007.44 ± 0.048 | 1.36244 ± 0.00031 | 0.9543 ± 0.007
343.15 K, w1 = 0.05 | 983.659 ± 0.047 | 1.33122 ± 0.00031 | 0.5002 ± 0.0058
343.15 K, w1 = 0.1 | 988.796 ± 0.046 | 1.3382 ± 0.00031 | 0.5534 ± 0.0059
343.15 K, w1 = 0.15 | 993.878 ± 0.045 | 1.34633 ± 0.00031 | 0.6185 ± 0.0061
343.15 K, w1 = 0.2 | 999.25 ± 0.045 | 1.35356 ± 0.00031 | 0.7459 ± 0.0065
343.15 K, w1 = 0.25 | 1004.41 ± 0.047 | 1.3614 ± 0.00031 | 0.8922 ± 0.0068
